Results from ChEMBL document CHEMBL6127128, “Discovery of the First-in-Class Dual-Target ROCK/HDAC Inhibitor with Potent Antitumor Efficacy in Vivo That Trigger Antitumor Immunity” (J Med Chem, 2024).
Activity calls are given as the source filed them. The calls are words filed in the database; no cut-off is given here.

Columns and labels:
Histone deacetylase 8 = molecular target: T1, Histone deacetylase 8 (Homo sapiens, UniProt Q9BY41); assay: Inhibition of HDAC8 (unknown origin) using Ac-Leu-Gly-Lys(tfa)-AMC as substrate preincubated for 5 mins followed by substrate addition for 30 mins and measured following trypsin addition for 30 mins by fluorescence based analysis
T1 sequence (Q9BY41 whole entry): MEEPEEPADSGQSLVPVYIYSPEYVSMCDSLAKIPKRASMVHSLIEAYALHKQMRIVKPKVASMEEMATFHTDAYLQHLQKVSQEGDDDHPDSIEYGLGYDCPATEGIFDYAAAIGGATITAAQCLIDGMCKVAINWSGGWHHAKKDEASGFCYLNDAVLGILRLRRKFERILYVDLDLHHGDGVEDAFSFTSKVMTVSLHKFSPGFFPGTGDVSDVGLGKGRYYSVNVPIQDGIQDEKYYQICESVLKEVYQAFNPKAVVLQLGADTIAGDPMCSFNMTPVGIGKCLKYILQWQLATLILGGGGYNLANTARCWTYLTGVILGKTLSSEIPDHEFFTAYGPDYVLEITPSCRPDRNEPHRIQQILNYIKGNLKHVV

4T1 [1] = assay: Antitumor immunity against mouse 4T1 cells implanted in Balb/c mouse assessed as increase in CD3+ T cells in tumor tissue at 50 mg/kg, po administered daily for 15 days by flow cytometry relative to SAHA; format: functional; conditions: time 15 day
[2] = Tmax in Balb/c mouse at 50 mg/kg, po measured for 24 hrs by LC-MS/MS analysis; format: ADME, organism-based; conditions: in vivo
4T1 [3] = assay: animal or person; format: functional; conditions: Mus musculus, 4T1, 360 h, route po, time 15 day, read-out: TGI
Description: Antitumor activity against mouse 4T1 cells implanted in Balb/c mouse assessed as inhibition of tumor growth rate at 50 mg/kg, po administered daily for 15 days

[4] = Toxicity against Balb/c mouse implanted with mouse 4T1 cells assessed as effect on body weight changes at 25 to 50 mg/kg, po administered daily for 15 days; format: organism-based; conditions: in vivo, 360 h, dose 25-50 mg/kg, time 15 day
[5] = Toxicity against Balb/c mouse implanted with mouse 4T1 cells assessed as effect on morphological changes in liver at 25 to 50 mg/kg, po administered daily for 15 days by Hematoxylin-Eosin staining based analysis; format: organism-based; conditions: in vivo, 360 h, dose 25-50 mg/kg, time 15 day
Histone deacetylase 5 = Histone deacetylase 5 (Homo sapiens, UniProt Q9UQL6); assay: Inhibition of HDAC5 (unknown origin) using Ac-Leu-Gly-Lys(tfa)-AMC as substrate preincubated for 5 mins followed by substrate addition for 30 mins and measured following trypsin addition for 30 mins by fluorescence based analysis
Histone deacetylase 5, sequence (Q9UQL6 whole entry): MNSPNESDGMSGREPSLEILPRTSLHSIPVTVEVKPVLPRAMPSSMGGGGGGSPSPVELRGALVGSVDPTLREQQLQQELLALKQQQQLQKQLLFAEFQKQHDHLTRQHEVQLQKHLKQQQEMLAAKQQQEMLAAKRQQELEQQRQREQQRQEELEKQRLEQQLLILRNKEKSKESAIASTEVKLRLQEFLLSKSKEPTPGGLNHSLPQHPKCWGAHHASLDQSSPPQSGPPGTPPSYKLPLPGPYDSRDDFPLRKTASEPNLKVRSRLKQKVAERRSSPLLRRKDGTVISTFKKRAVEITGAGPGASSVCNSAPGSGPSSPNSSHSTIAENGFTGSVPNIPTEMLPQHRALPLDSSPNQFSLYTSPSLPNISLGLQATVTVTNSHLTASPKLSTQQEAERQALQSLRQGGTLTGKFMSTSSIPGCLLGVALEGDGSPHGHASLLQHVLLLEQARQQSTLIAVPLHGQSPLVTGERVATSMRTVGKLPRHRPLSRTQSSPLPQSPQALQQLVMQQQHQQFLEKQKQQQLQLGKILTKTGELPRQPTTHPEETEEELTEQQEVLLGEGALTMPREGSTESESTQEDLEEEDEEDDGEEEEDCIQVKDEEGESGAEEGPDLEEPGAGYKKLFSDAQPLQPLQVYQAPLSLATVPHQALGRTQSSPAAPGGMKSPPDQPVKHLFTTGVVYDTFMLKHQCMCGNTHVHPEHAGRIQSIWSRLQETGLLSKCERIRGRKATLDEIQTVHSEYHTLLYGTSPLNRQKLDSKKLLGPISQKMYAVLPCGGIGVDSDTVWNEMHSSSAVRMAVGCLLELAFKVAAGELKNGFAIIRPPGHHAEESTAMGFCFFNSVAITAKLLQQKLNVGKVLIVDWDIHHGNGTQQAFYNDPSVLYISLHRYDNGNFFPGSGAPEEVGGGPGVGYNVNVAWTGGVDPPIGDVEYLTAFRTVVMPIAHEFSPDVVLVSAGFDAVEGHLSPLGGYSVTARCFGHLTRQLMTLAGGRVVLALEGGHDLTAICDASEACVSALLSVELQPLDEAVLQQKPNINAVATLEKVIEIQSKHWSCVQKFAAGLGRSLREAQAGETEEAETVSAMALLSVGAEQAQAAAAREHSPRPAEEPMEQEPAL

4T1 [6] = assay: Antitumor immunity against mouse 4T1 cells implanted in Balb/c mouse assessed as increase in CD40+ dendritic cells in tumor tissue at 25 mg/kg, po administered daily for 15 days by immunohistochemistry; format: functional, organism-based; conditions: time 15.0 day
Histone deacetylase 1 = Histone deacetylase 1 (Homo sapiens, UniProt Q13547); assay: Inhibition of HDAC1 (unknown origin) using Ac-Leu-Gly-Lys(Ac)-AMC as substrate preincubated for 5 mins followed by substrate addition for 30 mins and measured following trypsin addition for 30 mins by fluorescence based analysis
Histone deacetylase 1, sequence (Q13547 whole entry): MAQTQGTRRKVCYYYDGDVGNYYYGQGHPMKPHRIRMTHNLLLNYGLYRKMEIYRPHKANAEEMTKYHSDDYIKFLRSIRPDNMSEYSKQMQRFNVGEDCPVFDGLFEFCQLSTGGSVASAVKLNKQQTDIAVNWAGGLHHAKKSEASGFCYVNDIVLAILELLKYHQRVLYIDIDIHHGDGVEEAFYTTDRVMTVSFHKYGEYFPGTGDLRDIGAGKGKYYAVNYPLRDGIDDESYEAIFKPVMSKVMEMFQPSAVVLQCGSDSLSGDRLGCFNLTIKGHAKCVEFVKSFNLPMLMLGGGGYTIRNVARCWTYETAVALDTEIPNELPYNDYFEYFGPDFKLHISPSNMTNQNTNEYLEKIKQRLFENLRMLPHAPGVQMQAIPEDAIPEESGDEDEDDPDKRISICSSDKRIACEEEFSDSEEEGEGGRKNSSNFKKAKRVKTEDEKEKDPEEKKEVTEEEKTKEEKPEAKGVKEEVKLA

4T1 [7] = assay: Antitumor immunity against mouse 4T1 cells implanted in Balb/c mouse assessed as increase in CD8+ T cells in tumor tissue at 50 mg/kg, po administered daily for 15 days by flow cytometry relative to SAHA; format: functional; conditions: time 15 day
Histone deacetylase 7 = molecular target: T2, Histone deacetylase 7 (Homo sapiens, UniProt Q8WUI4); assay: Inhibition of HDAC7 (unknown origin) using Ac-Leu-Gly-Lys(tfa)-AMC as substrate preincubated for 5 mins followed by substrate addition for 30 mins and measured following trypsin addition for 30 mins by fluorescence based analysis
T2 sequence (Q8WUI4 whole entry): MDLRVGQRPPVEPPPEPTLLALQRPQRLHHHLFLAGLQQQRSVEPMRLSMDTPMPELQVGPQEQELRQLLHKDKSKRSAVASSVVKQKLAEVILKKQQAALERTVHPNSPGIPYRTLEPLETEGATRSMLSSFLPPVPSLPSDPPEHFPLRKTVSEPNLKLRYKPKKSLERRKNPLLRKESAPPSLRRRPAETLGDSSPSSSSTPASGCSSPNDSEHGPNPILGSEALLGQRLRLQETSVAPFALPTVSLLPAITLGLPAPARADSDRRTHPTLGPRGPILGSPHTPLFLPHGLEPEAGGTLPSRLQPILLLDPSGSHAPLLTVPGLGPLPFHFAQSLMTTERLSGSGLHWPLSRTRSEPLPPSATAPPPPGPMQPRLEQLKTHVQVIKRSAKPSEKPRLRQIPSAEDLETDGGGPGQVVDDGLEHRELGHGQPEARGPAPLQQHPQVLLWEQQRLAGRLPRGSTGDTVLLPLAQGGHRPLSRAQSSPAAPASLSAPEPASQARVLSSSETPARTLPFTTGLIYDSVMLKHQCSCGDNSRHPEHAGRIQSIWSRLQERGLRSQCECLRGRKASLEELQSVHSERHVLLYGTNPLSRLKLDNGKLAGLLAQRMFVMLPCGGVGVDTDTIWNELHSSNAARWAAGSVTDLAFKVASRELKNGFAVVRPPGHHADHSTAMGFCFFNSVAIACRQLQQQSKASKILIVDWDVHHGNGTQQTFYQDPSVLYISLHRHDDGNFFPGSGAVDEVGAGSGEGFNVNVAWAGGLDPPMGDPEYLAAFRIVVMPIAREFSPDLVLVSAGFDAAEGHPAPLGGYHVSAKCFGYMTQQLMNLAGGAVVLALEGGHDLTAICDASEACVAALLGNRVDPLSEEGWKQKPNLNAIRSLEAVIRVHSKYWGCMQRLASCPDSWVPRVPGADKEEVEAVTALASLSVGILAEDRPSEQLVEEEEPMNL

Histone deacetylase 3 = Histone deacetylase 3 (Homo sapiens, UniProt O15379); assay: Inhibition of HDAC3 (unknown origin) using Ac-Leu-Gly-Lys(Ac)-AMC as substrate preincubated for 5 mins followed by substrate addition for 30 mins and measured following trypsin addition for 30 mins by fluorescence based analysis
Histone deacetylase 3, sequence (O15379 whole entry): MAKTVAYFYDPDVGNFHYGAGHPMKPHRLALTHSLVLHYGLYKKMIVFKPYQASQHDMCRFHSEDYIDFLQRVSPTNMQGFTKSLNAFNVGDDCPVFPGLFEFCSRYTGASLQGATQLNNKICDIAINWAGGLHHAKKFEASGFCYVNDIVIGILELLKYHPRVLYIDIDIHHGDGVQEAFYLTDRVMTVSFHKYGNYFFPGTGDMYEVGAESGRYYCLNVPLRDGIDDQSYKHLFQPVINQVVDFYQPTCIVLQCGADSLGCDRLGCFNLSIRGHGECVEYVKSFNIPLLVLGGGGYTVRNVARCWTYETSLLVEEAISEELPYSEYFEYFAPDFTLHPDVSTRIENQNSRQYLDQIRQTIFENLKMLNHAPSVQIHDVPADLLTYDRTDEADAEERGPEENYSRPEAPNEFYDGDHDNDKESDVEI

[8] = Toxicity against Balb/c mouse implanted with mouse 4T1 cells assessed as effect on morphological changes in heart at 25 to 50 mg/kg, po administered daily for 15 days by Hematoxylin-Eosin staining based analysis; format: organism-based; conditions: in vivo, 360 h, dose 25-50 mg/kg, time 15 day
[9] = Tmax in Balb/c mouse at 1 mg/kg, iv measured for 24 hrs by LC-MS/MS analysis; format: ADME, organism-based; conditions: in vivo
4T1 [10] = assay: Antitumor activity against mouse 4T1 cells implanted in Balb/c mouse assessed as tumor weight at 50 mg/kg, po administered daily for 15 days; format: functional; conditions: time 15 day
4T1 [11] = assay: Antitumor activity against mouse 4T1 cells implanted in Balb/c mouse assessed as inhibition of tumor growth rate at 25 mg/kg, po administered daily for 15 days; format: functional; conditions: 4T1, 360 h, time 15 day, read-out: TGI
[12] = Oral bioavailability in Balb/c mouse at 50 mg/kg measured for 24 hrs by LC-MS/MS analysis; format: ADME, organism-based; conditions: in vivo
[13] = AUC (0 to infinity) in Balb/c mouse at 50 mg/kg, po measured for 24 hrs by LC-MS/MS analysis; format: ADME, organism-based; conditions: in vivo
Histone deacetylase 4 = Histone deacetylase 4 (Homo sapiens, UniProt P56524); assay: Inhibition of HDAC4 (unknown origin) using Ac-Leu-Gly-Lys(tfa)-AMC as substrate preincubated for 5 mins followed by substrate addition for 30 mins and measured following trypsin addition for 30 mins by fluorescence based analysis
Histone deacetylase 4, sequence (P56524 whole entry): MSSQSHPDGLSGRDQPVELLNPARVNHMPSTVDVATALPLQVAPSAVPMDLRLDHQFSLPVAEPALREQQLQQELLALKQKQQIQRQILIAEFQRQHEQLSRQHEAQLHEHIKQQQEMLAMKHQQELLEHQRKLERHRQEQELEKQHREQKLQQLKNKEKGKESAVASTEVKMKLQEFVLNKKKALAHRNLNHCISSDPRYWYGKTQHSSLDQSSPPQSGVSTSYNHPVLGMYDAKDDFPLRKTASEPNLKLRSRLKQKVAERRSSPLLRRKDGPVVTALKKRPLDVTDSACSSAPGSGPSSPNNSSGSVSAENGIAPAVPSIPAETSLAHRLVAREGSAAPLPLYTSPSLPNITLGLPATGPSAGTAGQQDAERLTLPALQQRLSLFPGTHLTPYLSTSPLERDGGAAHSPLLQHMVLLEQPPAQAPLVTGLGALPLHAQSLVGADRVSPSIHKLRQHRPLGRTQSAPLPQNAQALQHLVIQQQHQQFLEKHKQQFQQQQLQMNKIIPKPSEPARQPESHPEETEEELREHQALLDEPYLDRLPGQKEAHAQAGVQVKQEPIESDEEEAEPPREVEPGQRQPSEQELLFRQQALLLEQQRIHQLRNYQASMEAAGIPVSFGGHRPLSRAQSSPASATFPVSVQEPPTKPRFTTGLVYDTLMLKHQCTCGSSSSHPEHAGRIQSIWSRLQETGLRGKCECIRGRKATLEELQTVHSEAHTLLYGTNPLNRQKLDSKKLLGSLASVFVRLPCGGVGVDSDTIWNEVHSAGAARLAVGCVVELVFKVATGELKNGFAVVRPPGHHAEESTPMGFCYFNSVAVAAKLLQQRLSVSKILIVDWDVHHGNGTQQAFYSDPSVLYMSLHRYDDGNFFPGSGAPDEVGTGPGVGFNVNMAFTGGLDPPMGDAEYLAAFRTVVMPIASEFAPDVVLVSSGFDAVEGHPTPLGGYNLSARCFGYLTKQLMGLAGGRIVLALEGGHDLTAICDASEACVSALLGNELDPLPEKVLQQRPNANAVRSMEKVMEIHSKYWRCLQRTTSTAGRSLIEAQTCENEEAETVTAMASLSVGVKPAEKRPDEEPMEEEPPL

IC50 (Histone deacetylase 8): 7.69 nM
Tmax [2]: 1.8 min
IC50 (Histone deacetylase 5): > 10000 nM
IC50 (Histone deacetylase 1): 9.09 nM
IC50 (Histone deacetylase 7): > 10000 nM
IC50 (Histone deacetylase 3): 6.26 nM
Tmax [9]: 4.8 min
bioavailability [12]: 0.13%
AUC(0-inf) [13]: 5.95 ng·h/mL
IC50 (Histone deacetylase 4): > 10000 nM
Compound: O=C(CCCCCCNC(=O)c1cc2cc(-c3cn[nH]c3)ccc2s1)NO
fold change (FC) (4T1 [1]): 1.36
inhibition in vivo at 50 mg/kg (4T1 [3]): 69.4%
Activity [4]: Non-Toxic
Activity [5]: Non-Toxic
Activity (4T1 [6]): Active
fold change (FC) (4T1 [7]): 1.21
Activity [8]: Non-Toxic
Activity (4T1 [10]): 0.16 g
inhibition in vivo at 25 mg/kg (4T1 [11]): 45%
